Where “and” joins values, the source holds several entries; their conditions need not be identical. Identical values can stand only once. Like-named read-outs stand apart in the source and are kept apart here.

The target in test [1] is T1, CDK12–cyclin K and DDB1 (Homo sapiens, UniProt Q16531+Q9NYV4, K965R).
T1 construct: His6–CDK12 (a.a. 713–1,052); full-length or beta-propeller B domain deletion (ΔBPB: a.a. 396–705 deleted) constructs of His6–DDB1ΔBPB, StrepII–Avi–DDB1, or His6–Spy–DDB1; made in house; host or cells: Trichoplusia ni High Five insect cells (baculovirus)
The experiment in a line: TR-FRET ternary complex formation assay (compound titration). It counts as binding. The conditions noted are these: for EC50: read-out: TR-FRET EC50; for TR-FRET signal at compound concentration: replicate titrations. Put shortly:
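Signal was the ratio of 520 nm to 490 nm fluorescence, measured after a 70 μs delay that reduced background.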

Test [2] concerns cyclin K–eGFP degradation reporter. The experiment in a line: Cyclin K reporter stability analysis (dual-color cyclin K–eGFP reporter). The settings on record: source data sheet correlations; read-out: DC50. It counts as cell-based, human. Put shortly: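 HEK293T–Cas9 cells carrying the cyclin K–eGFP reporter were seeded at 1 × 10^6 ml^−1 and exposed to drug or DMSO for 5 h. Flow cytometry gave geometric means of eGFP and mCherry in round, mCherry-positive cells. The eGFP/mCherry ratio was normalized to the mean of three DMSO controls.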

Test [3] has as its system HEK293T cells. The experiment in a line: Drug sensitivity assay (CellTiter-Glo viability) with or without MLN4924 pretreatment. The settings on record: for EC50: Homo sapiens, HEK-293T; for Toxicity rescue: MLN4924-mediated cytotoxicity rescue, 10 µM used where n.d. It is filed as cell-based, human. Put shortly:
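HEK293T–Cas9, 0.15 × 10^6 ml^−1; pretreat DMSO vs 100 nM MLN4924; drugs dispensed after 2 h; 3 d exposure; CellTiter-Glo; viability vs DMSO control.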

Where [4] appears, read: in vitro complex formation, 50 nM CDK12–cyclin K, 100 nM DDB1, text and figures.
The mark [5] stands for this setting: Supplementary Table 2, HEK293T viability, 72 h, compound alone, read-out: Cellular assays EC50.
Where [6] appears, read: compound concentration 0.468 nM.
Where [7] appears, read: compound concentration 7.92001 nM.
[8] abbreviates: compound concentration 15.84 nM.
The mark [9] stands for this setting: compound concentration 30.96 nM.
Setting [10] is: compound concentration 62.6401 nM.
The mark [11] stands for this setting: compound concentration 125.28 nM.
The mark [12] stands for this setting: compound concentration 244.8 nM.
[13] abbreviates: compound concentration 993.601 nM.
[14] abbreviates: compound concentration 2001.6 nM.

T1 sequence (Q9NYV4 713-1052 K965R): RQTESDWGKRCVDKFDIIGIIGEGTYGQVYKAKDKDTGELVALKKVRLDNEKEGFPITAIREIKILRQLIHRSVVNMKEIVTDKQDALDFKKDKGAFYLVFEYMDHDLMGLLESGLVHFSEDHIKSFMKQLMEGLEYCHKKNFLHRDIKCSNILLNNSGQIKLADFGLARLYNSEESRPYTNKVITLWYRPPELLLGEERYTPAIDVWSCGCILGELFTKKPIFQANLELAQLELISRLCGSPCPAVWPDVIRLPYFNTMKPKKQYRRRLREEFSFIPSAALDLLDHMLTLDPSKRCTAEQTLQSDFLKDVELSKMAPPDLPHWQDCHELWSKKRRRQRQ
T1 sequence (O75909 1-267 partner): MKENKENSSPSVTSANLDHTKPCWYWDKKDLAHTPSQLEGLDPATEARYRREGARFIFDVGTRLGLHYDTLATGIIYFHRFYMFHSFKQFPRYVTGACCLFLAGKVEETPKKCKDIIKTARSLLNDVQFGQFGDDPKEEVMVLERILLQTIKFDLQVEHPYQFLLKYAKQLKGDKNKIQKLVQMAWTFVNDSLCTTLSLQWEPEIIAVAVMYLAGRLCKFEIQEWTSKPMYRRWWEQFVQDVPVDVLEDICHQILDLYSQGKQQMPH
T1 sequence (Q16531 whole entry): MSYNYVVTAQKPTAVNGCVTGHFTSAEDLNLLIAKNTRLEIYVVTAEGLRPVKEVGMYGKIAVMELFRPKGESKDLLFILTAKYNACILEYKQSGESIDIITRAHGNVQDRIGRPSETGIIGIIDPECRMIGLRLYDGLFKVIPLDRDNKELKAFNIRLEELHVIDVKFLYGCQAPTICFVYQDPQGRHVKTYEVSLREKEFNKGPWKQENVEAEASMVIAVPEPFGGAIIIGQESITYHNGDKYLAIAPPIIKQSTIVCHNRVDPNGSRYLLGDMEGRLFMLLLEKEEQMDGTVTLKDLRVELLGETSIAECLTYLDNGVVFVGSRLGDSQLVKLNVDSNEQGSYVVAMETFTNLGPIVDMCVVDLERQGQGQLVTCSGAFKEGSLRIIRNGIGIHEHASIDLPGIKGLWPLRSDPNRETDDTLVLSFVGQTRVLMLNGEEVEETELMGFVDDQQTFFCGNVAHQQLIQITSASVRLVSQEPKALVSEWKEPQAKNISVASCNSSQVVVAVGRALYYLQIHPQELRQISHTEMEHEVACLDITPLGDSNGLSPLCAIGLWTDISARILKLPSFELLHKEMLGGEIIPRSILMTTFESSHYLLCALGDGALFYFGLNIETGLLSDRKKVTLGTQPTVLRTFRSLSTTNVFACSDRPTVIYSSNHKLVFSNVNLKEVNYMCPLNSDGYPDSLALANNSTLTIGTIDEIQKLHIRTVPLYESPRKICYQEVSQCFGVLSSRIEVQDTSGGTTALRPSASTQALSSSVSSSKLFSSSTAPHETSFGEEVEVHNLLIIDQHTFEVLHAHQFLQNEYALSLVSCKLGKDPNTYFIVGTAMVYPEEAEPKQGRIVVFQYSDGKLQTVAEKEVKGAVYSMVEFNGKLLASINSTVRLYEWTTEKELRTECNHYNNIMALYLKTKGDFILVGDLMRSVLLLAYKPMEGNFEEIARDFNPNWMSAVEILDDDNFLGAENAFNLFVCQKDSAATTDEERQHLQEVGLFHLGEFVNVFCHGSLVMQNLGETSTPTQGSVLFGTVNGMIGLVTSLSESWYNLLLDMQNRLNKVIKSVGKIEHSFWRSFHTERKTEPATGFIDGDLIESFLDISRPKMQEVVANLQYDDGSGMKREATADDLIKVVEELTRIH

Regarding `CC[C@H](CO)Nc1nc(NCc2ccc(OCCO)cc2)c2ncn(C(C)C)c2n1` [DS61], the TR-FRET signal was 0.1556 and 0.1596 in test [1] (compound concentration 4.68 nM); 0.2553 and 0.252 in test [1] (compound concentration 21.6 nM); 0.4296 and 0.427 in test [1] (compound concentration 36 nM); 0.6728 and 0.6901 in test [1] (compound concentration 79.2001 nM); 0.9753 and 0.9579 in test [1] (compound concentration 158.4 nM); 1.242 and 1.248 in test [1] (compound concentration 309.6 nM). Also, the TR-FRET signal is 1.483 and 1.517 in test [1] (compound concentration 626.401 nM); 1.637 and 1.718 in test [1] (compound concentration 1252.8 nM); 1.781 and 1.804 in test [1] (compound concentration 2448 nM); 1.87 and 1.831 in test [1] (compound concentration 9936.01 nM); 1.812 and 1.801 in test [1] (compound concentration 20016 nM). The EC50 in test [1] (setting [4]) came out at 0.169 ± 0.007 µM; in test [1] (source data sheet correlations), 0.168 µM; in test [3] (Supplementary Fig. 5, HEK293T, CellTiter Glo, 72h, read-out: Viability EC50, no MLN4924) it was 0.281 µM; in test [3] (setting [5]), 0.283 µM. The half-maximal degradation concentration (DC50) in test [2] stood at 0.917 µM. Besides, the Toxicity rescue in test [3] (Supplementary Table 2) worked out at 278%.
Take `CC[C@@H](CO)Nc1nc(NCc2ccc(-c3ccccn3)cc2)c2ncn(C(C)C)c2n1` [DS28, reference compound]: in test [1] (compound concentration 0.468 nM, raw titration data), the “TR-FRET signal at compound concentration 0.468 nM” value is 0.2434 and 0.2416 and 0.2052. In test [1] (compound concentration 2.16 nM, raw titration data), the “TR-FRET signal at compound concentration 2.16 nM” value is 0.3117 and 0.3133 and 0.2621. The “TR-FRET signal at compound concentration 3.6 nM” value in test [1] (compound concentration 3.6 nM, raw titration data) is 0.4303 and 0.4364 and 0.3629. For the same compound, in test [1] (compound concentration 7.92001 nM, raw titration data), the “TR-FRET signal at compound concentration 7.92001 nM” value was 0.6777 and 0.6662 and 0.6266. In test [1] (compound concentration 15.84 nM, raw titration data), the “TR-FRET signal at compound concentration 15.84 nM” value was 1.124 and 1.123 and 1.094. Further, the “TR-FRET signal at compound concentration 30.96 nM” value in test [1] (compound concentration 30.96 nM, raw titration data) is 2.005 and 1.92 and 1.844. Besides, in test [1] (compound concentration 62.6401 nM, raw titration data), the “TR-FRET signal at compound concentration 62.6401 nM” value was 3.017 and 2.942 and 2.921. In test [1] (compound concentration 125.28 nM, raw titration data), the “TR-FRET signal at compound concentration 125.28 nM” value is 3.528 and 3.596 and 3.608. For the same compound, in test [1] (compound concentration 244.8 nM, raw titration data), the “TR-FRET signal at compound concentration 244.8 nM” value was 3.609 and 3.755 and 3.8349. Besides, the “TR-FRET signal at compound concentration 993.601 nM” value in test [1] (compound concentration 993.601 nM, raw titration data) was 3.693 and 3.913 and 3.885. In addition, in test [1] (compound concentration 2001.6 nM, raw titration data), the “TR-FRET signal at compound concentration 2001.6 nM” value is 3.507 and 3.702 and 3.683. The DC50 in test [2] came to 0.027 µM. For the same compound, the EC50 in test [3] (setting [5]) was found to be 0.221 µM. In test [3] (Supplementary Table 2), the Toxicity rescue was 610%.
Turning to `CC[C@H](CO)Nc1nc(NCCCc2cccc(O)c2)c2ncn(C(C)C)c2n1` [DS68], the TR-FRET signal is 0.3136 and 0.2898 in test [1] (setting [6]); 0.3334 and 0.33 in test [1] (compound concentration 2.16 nM); 0.3697 and 0.368 in test [1] (compound concentration 3.6 nM); 0.4418 and 0.4327 in test [1] (setting [7]); 0.566 and 0.543 in test [1] (setting [8]); 0.7892 and 0.7403 in test [1] (setting [9]). The TR-FRET signal in test [1] (setting [10]) is 1.141 and 1.026; in test [1] (setting [11]), 1.566 and 1.513; in test [1] (setting [12]) it was 2.027 and 2.001; in test [1] (setting [13]), 2.439 and 2.564; in test [1] (setting [14]), 2.241 and 2.631. The “TR-FRET signal at compound concentration” value was 0.3136 and 0.2898 in test [1] (setting [6]); 0.3334 and 0.33 in test [1] (compound concentration 2.16 nM); 0.3697 and 0.368 in test [1] (compound concentration 3.6 nM); 0.4418 and 0.4327 in test [1] (setting [7]); 0.566 and 0.543 in test [1] (setting [8]); 0.7892 and 0.7403 in test [1] (setting [9]). The “TR-FRET signal at compound concentration” value in test [1] (setting [10]) is 1.141 and 1.026; in test [1] (setting [11]), 1.566 and 1.513; in test [1] (setting [12]), 2.027 and 2.001; in test [1] (setting [13]), 2.439 and 2.564; in test [1] (setting [14]), 2.241 and 2.631. Further, the EC50 in test [1] (setting [4]) was determined as 0.104 ± 0.007 µM; in test [1] (source data sheet correlations), 0.104 µM; in test [3] (Supplementary Fig. 5, HEK293T, CellTiter Glo, 72h, pre-treatment with 100 nM MLN4924, read-out: Viability EC50, with MLN4924) it was 109 µM; in test [3] (setting [5]), 2.52 µM. For the same compound, the DC50 in test [2] was 0.571 µM. Further, the Toxicity rescue in test [3] (Supplementary Table 2) is reported as 296%.

By EC50 is commonly meant the concentration that produces a half-maximal response. Usually DC50 stands for the concentration giving 50% degradation.

Source of the values: paper PMC10746543, “Design principles for cyclin K molecular glue degraders” (Nature Chemical Biology, 2023).
